# Test results reported in patent US11230579B2, “Method of treating BCL-2 over-expressing disorders using arts containing a BH3-like domain” (CARMEL-HAIFA UNIVERSITY ECONOMIC CORPORATION LTD., priority 2012, dated 2022).
# Read-outs that look alike come from different tables or passages of the source. Residues, ends and D or L forms follow the SMILES beside them. *: point of attachment. Cbz = O=C(OCc1ccccc1)*
# T1: Bcl-W (Homo sapiens, UniProt Q92843)
# T1 sequence (Q92843 1-193): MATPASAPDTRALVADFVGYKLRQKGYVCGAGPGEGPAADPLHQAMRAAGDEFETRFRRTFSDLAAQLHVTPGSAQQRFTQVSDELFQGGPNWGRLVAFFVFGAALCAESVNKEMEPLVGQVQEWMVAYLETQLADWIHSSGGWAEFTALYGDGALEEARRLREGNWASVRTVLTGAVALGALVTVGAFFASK
# Assays:
# Bcl-2 [1] = experiment: Proteasome inhibition in transfected COS-7 cells, Bcl-2 levels; assay type: cell-based; conditions: COS-7 cells transfected with Bcl-2 or Bcl-2 and ARTS, 6 h
# Description: For the proteasome inhibition studies the cells were incubated with MG132 (20 μM) for 6 hours.
# COS-7 cells transiently transfected with Bcl-2 or co-transfected with Bcl-2 and ARTS constructs were incubated with a potent proteasome inhibitor MG132 for 6 h to evaluate the effect of the ubiquitin-proteasome system (UPS) on Bcl-2 degradation.
# [2] = tested on: small cell lung cancer xenographs, acute lymphoblastic leukemia and hematologic tumors; conditions: cited from earlier work
# Bcl-XL = Bcl-XL (Homo sapiens, UniProt Q07817); conditions: cited from earlier work
# Chain of Bcl-XL (Q07817 whole entry): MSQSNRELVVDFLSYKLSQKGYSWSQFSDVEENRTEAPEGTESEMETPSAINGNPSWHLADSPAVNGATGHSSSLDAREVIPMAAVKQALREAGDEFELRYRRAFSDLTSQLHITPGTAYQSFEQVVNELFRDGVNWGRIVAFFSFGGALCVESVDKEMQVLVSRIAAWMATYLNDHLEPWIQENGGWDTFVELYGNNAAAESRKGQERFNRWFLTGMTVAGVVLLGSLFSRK
# Bcl-2 [3] = experiment: IP with anti ARTS Ab after ABT-263 treatment with or without QVD: binding of ARTS to Bcl-2; assay type: cell-based, human; conditions: in the presence of QVD
# Description: Co immunoprecipitation was performed as previously described (Gottfried et al., 2004). Briefly, 10 μg of anti-ARTS antibody or 2 μg of anti-Bcl-2 or anti-XIAP antibody were added to the protein lysate and the samples were left rotating overnight at 4° C. On the following day, agarose beads conjugated to protein A/G (Santa Cruz) were added for 4 h. Samples were centrifuged at 4000 rpm, 4° C. for 5 min and washed three times with PBS. Proteins were eluted from beads following 5 min of boiling in sample buffer and separated on 12.5% SDS-PAGE gel, followed by Western blot analysis.
# ABT is a known BH3 mimetics antagonist of Bcl-2 that binds the hydrophobic binding groove in Bcl-2 that includes the BH3 domain. […] Addition of QVD was done to examine whether the binding of ARTS to Bcl-2 occurs before initiation of caspase activation. An IP assay using monoclonal mouse anti ARTS Ab followed by Western Blot was performed by using Bcl-2, ARTS and Actin antibodies.
# Bcl-W = target: T1, Bcl-W; conditions: cited from earlier work
# Bcl-2 [4] = conditions: cited from earlier work
# HeLa cells = experiment: Induction of apoptosis by ABT-263 (C-PARP, C-Casp3 Western blot); assay type: cell-based, human
# Description: (§1) ABT-263 is a Bcl-2 antagonist targeting the BH3 domain and leading to initiation of apoptosis within two hours after treatment. The effect of ABT-263 was studied in HeLa cells and HeLa cells in which ARTS expression was knocked-down using shRNA method (HeLa KD ARTS). HeLa and HeLa KD ARTS cells were treated with different concentrations of ABT-263 at different incubation time points (0, 16 and 24 Hours). Lysates were separated using SDS-PAGE method. To evaluate apoptosis, Western Blot analysis was performed using antibodies recognizing Cleaved-PARP (C-PARP), Cleaved-casp3 (C-Casp3), Bcl-2, ARTS, XIAP and Actin (FIG. 8A).
# HeLa KD ARTS cells = experiment: Induction of apoptosis by ABT-263 in ARTS knocked-down cells; assay type: cell-based, human; conditions: ARTS KD HeLa cells (absence of ARTS)
# Description: as §1
# [5] = tested on: acute lymphocytic leukemia; conditions: panel of pediatric tumors; cited from earlier work
# solid tumors = conditions: panel of pediatric tumors; cited from earlier work
# [6] = tested on: tumor types with an over expression of Mcl-1; conditions: cited from earlier work
# Bcl-2 [7] = conditions: different cell lines and mouse embryonic fibroblasts (MEFs), Western blot
# Bcl-2 [8] = experiment: Myc beads pull-down of ARTS and Bcl-2 in co-transfected COS-7 cells; assay type: binding; conditions: COS-7 cells co-transfected with Bcl-2 and ARTS
# Description: COS-7 cells were co-transfected with different constructs as detailed herein. The cells were lysed in RIPA buffer (150 mM NaCl, 50 mM Tris-HCl (pH 8), 1% NP-40, 0.5% deoxycholate acid containing protease inhibitors (mini Complete, Roche)). The samples were left rotating overnight at 4° C. with the anti-Myc-beads (Santa Cruz). Samples were centrifuged at 4000 rpm, 4° C. for 5 min and washed four times in PBS. Proteins were eluted from beads following 5 min of boiling in sample buffer. Proteins were separate on 12.5% SDS-PAGE gel, followed by Western blot analysis.
# The mechanism by which ARTS regulates Bcl-2 levels was further tested using a pull-down assay in COS-7 cells which were co-transfected with Bcl-2 and ARTS expression vectors. Pull-down assays were performed using agarose anti-myc beads followed by Western blot analysis using mouse anti-ARTS and anti-Bcl-2 antibodies.
# Bcl-2 [9] = experiment: Over-expression of ARTS in COS-7 cells, Bcl-2 levels by Western blot and densitometry; assay type: cell-based; conditions: COS-7 cells transfected with Bcl-2 or Bcl-2 and ARTS, 16 h
# Description: For transient transfections jetPEI™ (Polyplus Transfection) and Transfectol (GeneChoice) reagents were used according to the manufacturers' instructions.
# To determine whether ARTS promotes apoptosis by regulating the levels of Bcl-2, the inventors first over-expressed ARTS in COS-7 cells. More specifically, COS-7 cell were transiently transfected with ARTS, Bcl-2 or empty vector or co-transfected with both constructs.
# Bcl-2 [10] = experiment: Functional-structural pull-down assay with anti Bcl2 antibody in transfected HeLa cells; assay type: binding, human; conditions: pull-down with Bcl-2 antibodies
# Description: HeLa cells were transiently transfected with Full length ARTS plasmid and 128 amino acids N′ terminus deletion of ARTS plasmid, for 24 hrs. The cells were extracted using RIPA-SDS lysis buffer. Immunoprecipitation was done by incubation of lysates overnight with anti Bcl2 antibody (BD), followed by precipitation done with protein A/G beads (Santa Cruz). Western blot analysis was performed using monoclonal anti ARTS antibody directed against its unique C terminus (Sigma).
# In order to identify the Bcl-2 binding domain in ARTS, the inventors examined whether deletion of different fragments of ARTS, namely, the N-terminal 128 amino-acid residues may have an effect. Therefore, pull-down experiments were performed in HeLa cells transfected with either the full length ARTS or a deletion mutant thereof.
molecule,measurement,setting,value
CC(C)C[C@@H](C=O)NC(=O)[C@H](CC(C)C)NC(=O)[C@H](CC(C)C)NC(=O)OCc1ccccc1 [MG132] (Cbz-Leu-Leu-Leu-aldehyde),Bcl-2 levels during proteasome inactivation,Bcl-2 [1],accumulation of Bcl-2 levels
"CC1(C)CCC(c2ccc(Cl)cc2)=C(CN2CCN(c3ccc(C(=O)NS(=O)(=O)c4ccc(N[C@H](CCN5CCOCC5)CSc5ccccc5)c(S(=O)(=O)C(F)(F)F)c4)cc3)CC2)C1 [ABT-263, 4-[4-[[2-(4-Chlorophenyl)-5,5-dimethyl-1-cyclohexen-1-yl]methyl]-1-piperazinyl]-N-[[4-[[(1R)-3-(4-morpholinyl)-1-[(phenylthio)methyl]propyl]amino]-3-[(trifluoromethyl)sulfonyl]phenyl]sulfonyl]benzamide]",efficacy against tumors,[2],effective
same,binding to Bcl-XL,Bcl-XL,high affinity
same,binding of ARTS to Bcl-2 after treatment,"Bcl-2 [3]; 25 μM, 3 and 24 hours",significant increase in binding of ARTS to Bcl-2
same,inhibition of the binding of ARTS to Bcl-2,Bcl-2 [3],fails to inhibit
same,binding to Bcl-W,Bcl-W,high affinity
same,binding to Bcl-2,Bcl-2 [4],high affinity
same,apoptosis (level of C-PARP and C-Casp3) with increased concentrations,HeLa cells,increased apoptosis
same,apoptosis,HeLa cells; 25 μM for 24H,induction of apoptosis
same,concentration giving optimal induction of apoptosis,HeLa cells; 24 h,25 µM
same,apoptosis (C-PARP and C-Casp3 levels),HeLa KD ARTS cells,not able to induce apoptosis
same,apoptosis (C-PARP and C-Casp3 levels),HeLa KD ARTS cells; listed as ABT,lower apoptosis rates
same,efficacy against acute lymphocytic leukemia,[5],highly significant
same,efficacy as a single agent against solid tumors,solid tumors,not effective
"CN(C)CC[C@H](CSc1ccccc1)Nc1ccc(S(=O)(=O)NC(=O)c2ccc(N3CCN(Cc4ccccc4-c4ccc(Cl)cc4)CC3)cc2)cc1[N+](=O)[O-] [ABT-737, (R)-4-(4-((4′-chloro-[1,1′-biphenyl]-2-yl)methyl)piperazin-1-yl)-N-((4-((4-(dimethylamino)-1-(phenylthio)butan-2-yl)amino)-3-nitrophenyl)sulfonyl)benzamide]",binding to Bcl-XL,Bcl-XL,high affinity
same,binding to Bcl-W,Bcl-W,high affinity
same,binding to Bcl-2,Bcl-2 [4],high affinity
same,effect in tumor types with an over expression of Mcl-1,[6],no effect
COc1cc([C@@H]2c3cc4c(cc3[C@@H](O[C@@H]3O[C@@H]5CO[C@@H](C)O[C@H]5[C@H](O)[C@H]3O)[C@H]3COC(=O)[C@H]23)OCO4)cc(OC)c1O [Etoposide],Bcl-2 levels upon induction of apoptosis,Bcl-2 [7],down regulated
same,fate of ARTS/Bcl-2 complex upon induction of apoptosis,Bcl-2 [8],degraded
same,Bcl-2 level on treatment,Bcl-2 [9],further reduction of Bcl-2 level
128aa N′del ARTS: deletion mutant of ARTS lacking the N′ terminal 128 amino acid residues (protein) MVAGESGLGKSTLVNSLFLTDLYRDRKLLGAEERIMQTVEITKHAVDIEEKGVRLRLTIVDTPGFGDAVNNTECWKPVAEYIDQQFEQYFRDESGLNRKNIQDNRVHCCLYFISPFGHGYGPSLRLLAPPGAVKGTGQEHQGQGCH,binding to Bcl-2,Bcl-2 [10],does not bind to Bcl-2
